Data as given in US5110800A, “Derivatives of erythromycylamine” (Eli Lilly and Company, priority 1989, dated 1992).
Values after ≈ are worked out from the molar mass of the structure shown. Where two headings read alike, the source gives them in different places.

Tests used:
Experiment in all cases: MIC, standard agar-dilution assay
Assay type in all cases: cell-based
[1] = test system: Staphylococcus aureus X400; settings: Staphylococcus aureus
Text: (§1) In addition to excellent in vitro activity against erythromycin-sensitive bacteria, several members of this new series have shown in vitro activity against erythromycin-resistant strains. These include strains which are inducibly-resistant to erythromycin (S. aureus V41 and X400 and S. epidermidis EPI1) and even strains which are constitutively-resistant (S. epidermidis 270).

[2] = test system: Staphylococcus epidermidis 270; settings: Staphylococcus epidermidis, 270; Table IV; constitutively erythromycin-resistant; read-out: minimal inhibitory concentration (MIC)
Text: as §1

[3] = test system: Staphylococcus aureus V41; settings: Staphylococcus aureus
Text: as §1

[4] = test system: Klebsiella pneumoniae X68; settings: Klebsiella pneumoniae, X68, agar dilution, read-out: minimal inhibitory concentration (MIC)
Escherichia coli EC14 = settings: Escherichia coli
[5] = test system: Streptococcus sp. group D X66; settings: Streptococcus, read-out: minimal inhibitory concentration (MIC)
[6] = test system: Staphylococcus aureus X1.1; settings: Staphylococcus aureus, X1.1, read-out: minimal inhibitory concentration (MIC)
[7] = test system: Haemophilus influenzae C.L.; settings: Haemophilus influenzae, read-out: minimal inhibitory concentration (MIC)
[8] = test system: Staphylococcus epidermidis 222; settings: Staphylococcus epidermidis, 222, read-out: minimal inhibitory concentration (MIC)
[9] = test system: Streptococcus sp. group D 2041; settings: Streptococcus, read-out: minimal inhibitory concentration (MIC)
[10] = test system: Streptococcus pyogenes C203; settings: Streptococcus pyogenes, C203, read-out: minimal inhibitory concentration (MIC)
[11] = X400, Table IV, methicillin-resistant strain, inducibly erythromycin-resistant, read-out: minimal inhibitory concentration (MIC)
[12] = V41, Table IV, penicillin-resistant strain, inducibly erythromycin-resistant, read-out: minimal inhibitory concentration (MIC)
[13] = EC14, Table IV, agar dilution, read-out: minimal inhibitory concentration (MIC)
[14] = EC14, read-out: minimal inhibitory concentration (MIC)

| Compound | MIC [1, 11] | MIC [2] | MIC [3, 12] | MIC ([4]; Table IV) | other results |
| --- | --- | --- | --- | --- | --- |
| CCN[C@@H]1[C@H](C)[C@@H](O)[C@](C)(O)[C@@H](CC)OC(=O)[C@H](C)[C@@H](O[C@H]2C[C@@](C)(OC)[C@@H](O)[C@H](C)O2)[C@H](C)[C@@H](O[C@@H]2O[C@H](C)C[C@H](N(C)C)[C@H]2O)[C@](C)(O)C[C@H]1C [Compound 2, (9S)-9-Deoxo-9-(ethylamino)erythromycin] | > 128 µg/mL | > 128 µg/mL | > 128 µg/mL |  |  |
| CCCN[C@@H]1[C@H](C)[C@@H](O)[C@](C)(O)[C@@H](CC)OC(=O)[C@H](C)[C@@H](O[C@H]2C[C@@](C)(OC)[C@@H](O)[C@H](C)O2)[C@H](C)[C@@H](O[C@@H]2O[C@H](C)C[C@H](N(C)C)[C@H]2O)[C@](C)(O)C[C@H]1C [Compound 3, 9-Deoxo-9-(n-propylamino)erythromycin] | > 128 µg/mL | > 128 µg/mL | > 128 µg/mL |  |  |
| CCCCCCN[C@@H]1[C@H](C)[C@@H](O)[C@](C)(O)[C@@H](CC)OC(=O)[C@H](C)[C@@H](O[C@H]2C[C@@](C)(OC)[C@@H](O)[C@H](C)O2)[C@H](C)[C@@H](O[C@@H]2O[C@H](C)C[C@H](N(C)C)[C@H]2O)[C@](C)(O)C[C@H]1C [Compound 6, 9-Deoxo-9-(n-hexylamino)erythromycin] | > 128 µg/mL | > 128 µg/mL | > 128 µg/mL |  |  |
| CCCCCCCN[C@@H]1[C@H](C)[C@@H](O)[C@](C)(O)[C@@H](CC)OC(=O)[C@H](C)[C@@H](O[C@H]2C[C@@](C)(OC)[C@@H](O)[C@H](C)O2)[C@H](C)[C@@H](O[C@@H]2O[C@H](C)C[C@H](N(C)C)[C@H]2O)[C@](C)(O)C[C@H]1C [Compound 7, 9-Deoxo-9-(n-heptylamino)erythromycin] | > 128 µg/mL | > 128 µg/mL | > 128 µg/mL | > 128 µg/mL |  |
| CCCCCCCCN[C@@H]1[C@H](C)[C@@H](O)[C@](C)(O)[C@@H](CC)OC(=O)[C@H](C)[C@@H](O[C@H]2C[C@@](C)(OC)[C@@H](O)[C@H](C)O2)[C@H](C)[C@@H](O[C@@H]2O[C@H](C)C[C@H](N(C)C)[C@H]2O)[C@](C)(O)C[C@H]1C [Compound 8, 9-Deoxo-9-(n-octylamino)erythromycin] |  |  |  | > 128 µg/mL | MIC (Escherichia coli EC14; [13]): > 128 µg/mL |
| CC[C@H]1OC(=O)[C@H](C)[C@@H](O[C@H]2C[C@@](C)(OC)[C@@H](O)[C@H](C)O2)[C@H](C)[C@@H](O[C@@H]2O[C@H](C)C[C@H](N(C)C)[C@H]2O)[C@](C)(O)C[C@@H](C)[C@H](NCCC(C)C)[C@H](C)[C@@H](O)[C@]1(C)O [Compound 11, 9-Deoxo-9-[(3-methylbutyl)amino]erythromycin] | > 128 µg/mL | > 128 µg/mL | > 128 µg/mL |  |  |
| CCC(CC)CN[C@@H]1[C@H](C)[C@@H](O)[C@](C)(O)[C@@H](CC)OC(=O)[C@H](C)[C@@H](O[C@H]2C[C@@](C)(OC)[C@@H](O)[C@H](C)O2)[C@H](C)[C@@H](O[C@@H]2O[C@H](C)C[C@H](N(C)C)[C@H]2O)[C@](C)(O)C[C@H]1C [Compound 12, 9-Deoxo-9-[(2-ethylbutyl)amino]erythromycin] |  | > 128 µg/mL |  |  |  |
| CCCCC/C=C\CCCN[C@@H]1[C@H](C)[C@@H](O)[C@](C)(O)[C@@H](CC)OC(=O)[C@H](C)[C@@H](O[C@H]2C[C@@](C)(OC)[C@@H](O)[C@H](C)O2)[C@H](C)[C@@H](O[C@@H]2O[C@H](C)C[C@H](N(C)C)[C@H]2O)[C@](C)(O)C[C@H]1C [Compound 13] |  |  |  | > 128 µg/mL | MIC [5]: 0.06 µg/mL (≈ 0.0687 µM); MIC [6]: 0.25 µg/mL (≈ 0.286 µM); MIC [7]: 2 µg/mL (≈ 2.29 µM); MIC (Escherichia coli EC14; [14]): 128 µg/mL (≈ 147 µM) |
| CCCCC/C=C/CCCN[C@@H]1[C@H](C)[C@@H](O)[C@](C)(O)[C@@H](CC)OC(=O)[C@H](C)[C@@H](O[C@H]2C[C@@](C)(OC)[C@@H](O)[C@H](C)O2)[C@H](C)[C@@H](O[C@@H]2O[C@H](C)C[C@H](N(C)C)[C@H]2O)[C@](C)(O)C[C@H]1C [Compound 14, 9-Deoxo-9-[(trans-dec-4-enyl)amino]erythromycin] |  |  |  | > 128 µg/mL | MIC [8]: 0.25 µg/mL (≈ 0.286 µM); MIC [6]: 0.5 µg/mL (≈ 0.573 µM); MIC [7]: 2 µg/mL (≈ 2.29 µM); MIC [9]: 2 µg/mL (≈ 2.29 µM); MIC (Escherichia coli EC14; [14]): 128 µg/mL (≈ 147 µM) |
| CC[C@H]1OC(=O)[C@H](C)[C@@H](O[C@H]2C[C@@](C)(OC)[C@@H](O)[C@H](C)O2)[C@H](C)[C@@H](O[C@@H]2O[C@H](C)C[C@H](N(C)C)[C@H]2O)[C@](C)(O)C[C@@H](C)[C@H](NCC2CC=CCC2)[C@H](C)[C@@H](O)[C@]1(C)O (stereo partly shown) [Compound 15, 9-Deoxo-9-[(1-cyclohex-4-enylmethyl)amino]erythromycin] | > 128 µg/mL | > 128 µg/mL | > 128 µg/mL |  |  |
| CC[C@H]1OC(=O)[C@H](C)[C@@H](O[C@H]2C[C@@](C)(OC)[C@@H](O)[C@H](C)O2)[C@H](C)[C@@H](O[C@@H]2O[C@H](C)C[C@H](N(C)C)[C@H]2O)[C@](C)(O)C[C@@H](C)[C@H](NCC#Cc2ccccc2)[C@H](C)[C@@H](O)[C@]1(C)O [Compound 18, 9-Deoxo-9-[(3-phenyl-2-propynyl)amino]erythromycin] |  |  |  | > 128 µg/mL | MIC [8]: 0.5 µg/mL (≈ 0.589 µM); MIC [5]: 0.25 µg/mL (≈ 0.294 µM); MIC [6]: 1 µg/mL (≈ 1.18 µM); MIC [9]: 1 µg/mL (≈ 1.18 µM); MIC (Escherichia coli EC14; [13]): > 128 µg/mL |
| CC[C@H]1OC(=O)[C@H](C)[C@@H](O[C@H]2C[C@@](C)(OC)[C@@H](O)[C@H](C)O2)[C@H](C)[C@@H](O[C@@H]2O[C@H](C)C[C@H](N(C)C)[C@H]2O)[C@](C)(O)C[C@@H](C)[C@H](NCCCCCO)[C@H](C)[C@@H](O)[C@]1(C)O [Compound 21, 9-Deoxo-9-[(5-hydroxypentyl)amino]erythromycin] | > 128 µg/mL | > 128 µg/mL | > 128 µg/mL |  |  |
| CC[C@H]1OC(=O)[C@H](C)[C@@H](O[C@H]2C[C@@](C)(OC)[C@@H](O)[C@H](C)O2)[C@H](C)[C@@H](O[C@@H]2O[C@H](C)C[C@H](N(C)C)[C@H]2O)[C@](C)(O)C[C@@H](C)[C@H](NCC(C)(C)CO)[C@H](C)[C@@H](O)[C@]1(C)O [Compound 22, 9-Deoxo-9-[(3-hydroxy-2,2-dimethylpropyl)amino]erythromycin] | > 128 µg/mL | > 128 µg/mL | > 128 µg/mL |  |  |
| CC[C@H]1OC(=O)[C@H](C)[C@@H](O[C@H]2C[C@@](C)(OC)[C@@H](O)[C@H](C)O2)[C@H](C)[C@@H](O[C@@H]2O[C@H](C)C[C@H](N(C)C)[C@H]2O)[C@](C)(O)C[C@@H](C)[C@H](NCCCOC)[C@H](C)[C@@H](O)[C@]1(C)O [Compound 23, (9S)-9-Deoxo-9-[(3-methoxypropyl)amino]erythromycin] | > 128 µg/mL | > 128 µg/mL | > 128 µg/mL |  | MIC [8]: 0.5 µg/mL (≈ 0.62 µM); MIC [5]: 0.25 µg/mL (≈ 0.31 µM); MIC [6]: 2 µg/mL (≈ 2.48 µM); MIC [10]: 0.125 µg/mL (≈ 0.155 µM); MIC [9]: 8 µg/mL (≈ 9.91 µM) |
| CC[C@H]1OC(=O)[C@H](C)[C@@H](O[C@H]2C[C@@](C)(OC)[C@@H](O)[C@H](C)O2)[C@H](C)[C@@H](O[C@@H]2O[C@H](C)C[C@H](N(C)C)[C@H]2O)[C@](C)(O)C[C@@H](C)[C@H](NCCC(C)CCCC(C)(C)OC)[C@H](C)[C@@H](O)[C@]1(C)O (stereo partly shown) [Compound 24, 9-Deoxo-9-[(7-methoxy-3,7-dimethyloctyl)amino]erythromycin] |  | > 128 µg/mL |  | > 128 µg/mL | MIC [8]: 0.25 µg/mL (≈ 0.276 µM); MIC [6]: 0.5 µg/mL (≈ 0.552 µM); MIC [10]: 0.015 µg/mL (≈ 0.0166 µM); MIC [9]: 2 µg/mL (≈ 2.21 µM); MIC (Escherichia coli EC14; [14]): 128 µg/mL (≈ 141 µM) |
| CC[C@H]1OC(=O)[C@H](C)[C@@H](O[C@H]2C[C@@](C)(OC)[C@@H](O)[C@H](C)O2)[C@H](C)[C@@H](O[C@@H]2O[C@H](C)C[C@H](N(C)C)[C@H]2O)[C@](C)(O)C[C@@H](C)[C@H](NCCOCCOC)[C@H](C)[C@@H](O)[C@]1(C)O [Compound 25, 9-Deoxo-9-[[2-(2-methoxyethoxy)ethyl]amino]erythromycin] | > 128 µg/mL | > 128 µg/mL | > 128 µg/mL |  |  |
| CC[C@H]1OC(=O)[C@H](C)[C@@H](O[C@H]2C[C@@](C)(OC)[C@@H](O)[C@H](C)O2)[C@H](C)[C@@H](O[C@@H]2O[C@H](C)C[C@H](N(C)C)[C@H]2O)[C@](C)(O)C[C@@H](C)[C@H]2[C@H](C)[C@@H](OCN2C(C)C)[C@]1(C)O [Compound 58, 9-Deoxo-9-[isopropylamino]-9,11-(N,O)-cyclic Methylene Adduct of Erythromycin] |  |  |  |  | MIC ([1]; X400, read-out: minimal inhibitory concentration (MIC)): > 128 µg/mL; MIC ([3]; V41, read-out: minimal inhibitory concentration (MIC)): > 128 µg/mL |
| CC[C@H]1OC(=O)[C@H](C)[C@@H](O[C@H]2C[C@@](C)(OC)[C@@H](O)[C@H](C)O2)[C@H](C)[C@@H](O[C@@H]2O[C@H](C)C[C@H](N(C)C)[C@H]2O)[C@](C)(O)C[C@@H](C)[C@H]2[C@H](C)[C@@H](OCN2Cc2ccccc2)[C@]1(C)O [Compound 62, 9-Deoxo-9-[(benzyl)amino]-9,11-(N,O)-cyclic Methylene Adduct of Erythromycin] |  |  |  |  | MIC ([4]; Table V): > 128 µg/mL; MIC (Escherichia coli EC14; EC14, Table V, agar dilution, read-out: minimal inhibitory concentration (MIC)): > 128 µg/mL |
